From PubChem BioAssay AID1259407 (Chemical Carcinogenesis Research Information System (CCRIS), 2018)
Active and inactive are the calls of the source. No rule for the calls is given here.

System: CCRIS mutagenicity, Ames/micronucleus/aberration tests
Assay: CCRIS mutagenicity studies
[1] = Test System: AMES SALMONELLA TYPHIMURIUM, Strain/Indicator: TA98, Metabolic Activation: NONE
[2] = Test System: AMES SALMONELLA TYPHIMURIUM, Strain/Indicator: TA100, Metabolic Activation: NONE
[3] = Test System: AMES SALMONELLA TYPHIMURIUM, Strain/Indicator: TA1535, Metabolic Activation: NONE
[4] = Test System: AMES SALMONELLA TYPHIMURIUM, Strain/Indicator: TA1537, Metabolic Activation: NONE

With `O=[N+]([O-])c1ccc2c(c1)-c1ccc([N+](=O)[O-])c3cccc-2c13` the mutagenic call (Test System: AMES SALMONELLA TYPHIMURIUM, Strain/Indicator: TA97, Metabolic Activation: NONE) was “active; positive”, the mutagenic call (Test System: AMES SALMONELLA TYPHIMURIUM, Strain/Indicator: TA98(1,8-DNP6), Metabolic Activation: NONE) was “active; positive” and the mutagenic call (Test System: AMES SALMONELLA TYPHIMURIUM, Strain/Indicator: TA98(NR), Metabolic Activation: NONE) was “active; positive”. The mutagenic call [1] was “active; positive”, the mutagenic call [2] was “active; positive” and the mutagenic call [3] was “inactive; negative”. For the same compound, the mutagenic call [4] was “active; positive”, the mutagenic call (Test System: AMES SALMONELLA TYPHIMURIUM, Strain/Indicator: TA1538, Metabolic Activation: NONE) was “active; positive” and the mutagenic call (Test System: AMES SALMONELLA TYPHIMURIUM, Strain/Indicator: TA1978, Metabolic Activation: NONE) was “active; positive”.

In the case of `CCOC(=O)[C@H](CCc1ccccc1)N[C@@H](C)C(=O)N(CC(=O)O)C1Cc2ccccc2C1`, the mutagenic call [1] is reported as “inactive; negative”, the mutagenic call (Test System: AMES SALMONELLA TYPHIMURIUM, Strain/Indicator: TA98, Metabolic Activation: S-9) is reported as “inactive; negative” and the mutagenic call [2] is reported as “inactive; negative”. The mutagenic call (Test System: AMES SALMONELLA TYPHIMURIUM, Strain/Indicator: TA100, Metabolic Activation: S-9) was “inactive; negative”, the mutagenic call [3] was “inactive; negative” and the mutagenic call (Test System: AMES SALMONELLA TYPHIMURIUM, Strain/Indicator: TA1535, Metabolic Activation: S-9) was “inactive; negative”. For the same compound, the mutagenic call [4] was “inactive; negative”, the mutagenic call (Test System: AMES SALMONELLA TYPHIMURIUM, Strain/Indicator: TA1537, Metabolic Activation: S-9) was “inactive; negative” and the mutagenic call (Test System: E. COLI, Strain/Indicator: WP2 UVRA, Metabolic Activation: NONE) was “inactive; negative”. For the same compound, the mutagenic call (Test System: E. COLI, Strain/Indicator: WP2 UVRA, Metabolic Activation: S-9) was “inactive; negative”.

In the case of `O=C/C(Cl)=C(/Cl)C(=O)O`, the mutagenic call (Test System: AMES SALMONELLA TYPHIMURIUM, Strain/Indicator: TA1535, Metabolic Activation: NONE, Method: STANDARD PLATE) is reported as “active; positive” and the mutagenic call (Test System: CHINESE HAMSTER OVARY, Strain/Indicator: CHO-KTL3 (HPRT)/6-THIOGUANINE, Metabolic Activation: NONE) is reported as “active; positive”.

In the case of `C=CC1(C)CO1` (centres undefined), the mutagenic call (End Point: IN VIVO MICRONUCLEUS, Test System: BONE MARROW POLYCHROMATIC ERYTHROCYTES, Species: MOUSE, Strain/Sex: C57/BL/MALE, Route: INTRAPERITONEAL INJECTION) is reported as “active; positive”, the mutagenic call (Test System: AMES SALMONELLA TYPHIMURIUM, Strain/Indicator: TA98, Metabolic Activation: NONE, Method: STANDARD PLATE) is reported as “inactive; negative” and the mutagenic call (Test System: AMES SALMONELLA TYPHIMURIUM, Strain/Indicator: TA100, Metabolic Activation: NONE, Method: STANDARD PLATE) is reported as “inactive; negative”.
